Entries after “also recorded” stand apart in the source; their conditions may differ. Where a SMILES comes first, the peptide text is derived from it. [ ]: non-standard residue; d: D form. dNMeA = CN[C@H](C)C(=O)O; Sar = CNCC(=O)O
How the values were obtained:
KOR = target: T1, KOR (Mus musculus, UniProt P33534); assay: 55° C. warm-water tail-withdrawal assay, antagonism of U50,488-induced antinociception; type: in vivo; conditions: for KOR antagonism: i.c.v. pretreatment, U50,488 10 mg/kg i.p.
T1 construct: from tissue; host or cells: living C57Bl/6 mice (whole animal; CNS and periphery)

[1] = In vitro metabolic stability in mouse liver microsomes
MOR KO mice = assay: Opioid receptor selectivity of antinociception, tail-withdrawal assay in MOR KO mice; type: in vivo, mouse; conditions: i.c.v.
C57Bl/6 mice = assay: Reinstatement of extinguished cocaine conditioned place preference
μ opioid receptor = target: T2, μ opioid receptor (Mus musculus, UniProt P42866); assay: 55° C. warm-water tail-withdrawal assay, antagonism of morphine-mediated antinociception; type: in vivo; conditions: 30 nmol i.c.v., 2.5 h pretreatment
T2 construct: mice are pretreated with the compound of the invention; from tissue; host or cells: living C57Bl/6 mice (whole animal)

mice [2] = assay: Reinstatement of extinguished ethanol conditioned place preference; type: in vivo, mouse; conditions: 0.01 nmol i.c.v.
From the text: Similarly mice were place-conditioned using ethanol in a conditioned place-preference assay [Sperling, R. E., Gomes, S. M., Sypek, E. I., Carey, A. N. and McLaughlin, J. P., 2010. Endogenous kappa-opioid mediation of stress-induced potentiation of ethanol-conditioned place preference and self-administration. Psychopharmacology, 210, 199-209] with a biased conditioning paradigm (see McLaughlin, J. P., Ganno M. L., Eans, S. O., Mizrachi, E. and Paris, J. P., 2014. HIV-1 Tat protein exposure potentiates ethanol reward and reinstates extinguished ethanol-conditioned place preference. Current HIV Research, 12(6), 415-423). […] Mice were then pretreated once daily for two days with vehicle (50% DMSO in 0.9% saline, i.c.v.) or cyclo[D-Phe-Pro-Sar-Phe] (0.01 nmol, i.c.v.) and exposed to two days of forced swim stress or an additional cycle of ethanol place conditioning as described above.

mice [3] = assay: Reinstatement of extinguished morphine conditioned place preference; conditions: for stress-induced reinstatement of morphine CPP, peripheral pretreatment: 10 mg/kg i.p., nor-BNI once 24 h prior, cyclo[D-Phe-Pro-Sar-Phe] twice, 2.5 h prior to forced swimming daily
δ opioid receptor = target: T3, δ opioid receptor (Mus musculus, UniProt P32300); assay: 55° C. warm-water tail-withdrawal assay, antagonism of SNC80-mediated antinociception; type: in vivo; conditions: 30 nmol i.c.v., 2.5 h pretreatment
T3 construct: from tissue; host or cells: living C57Bl/6 mice (whole animal)

KOR KO mice = conditions: 200 nmol i.c.v.; β-FNA 5 mg/kg s.c. −24 h
[4] = liver microsomes, apparent t1/2 in mouse liver microsomes, mouse liver microsomes, 37° C.

T1 sequence (P33534 whole entry): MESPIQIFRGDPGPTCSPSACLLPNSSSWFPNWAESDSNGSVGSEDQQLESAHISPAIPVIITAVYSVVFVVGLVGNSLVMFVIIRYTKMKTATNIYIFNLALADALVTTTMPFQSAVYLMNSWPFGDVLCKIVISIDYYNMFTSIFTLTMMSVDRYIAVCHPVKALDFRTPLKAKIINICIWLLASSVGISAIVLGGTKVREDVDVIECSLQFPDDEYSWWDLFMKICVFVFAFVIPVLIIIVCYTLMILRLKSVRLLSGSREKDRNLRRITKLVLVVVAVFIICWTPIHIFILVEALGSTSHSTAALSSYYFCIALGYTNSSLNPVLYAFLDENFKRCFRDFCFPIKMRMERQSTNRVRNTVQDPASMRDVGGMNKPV
T2 sequence (P42866 whole entry): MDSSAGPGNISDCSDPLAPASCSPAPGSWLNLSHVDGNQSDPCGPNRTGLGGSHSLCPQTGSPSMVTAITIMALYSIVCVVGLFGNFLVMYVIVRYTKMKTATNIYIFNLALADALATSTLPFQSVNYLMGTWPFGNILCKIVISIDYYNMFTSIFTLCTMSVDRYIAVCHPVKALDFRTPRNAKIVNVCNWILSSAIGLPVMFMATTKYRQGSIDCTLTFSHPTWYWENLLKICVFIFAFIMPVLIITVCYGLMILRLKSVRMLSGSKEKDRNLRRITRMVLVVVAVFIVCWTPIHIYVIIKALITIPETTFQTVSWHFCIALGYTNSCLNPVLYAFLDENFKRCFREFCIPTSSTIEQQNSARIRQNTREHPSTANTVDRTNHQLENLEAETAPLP
T3 sequence (P32300 whole entry): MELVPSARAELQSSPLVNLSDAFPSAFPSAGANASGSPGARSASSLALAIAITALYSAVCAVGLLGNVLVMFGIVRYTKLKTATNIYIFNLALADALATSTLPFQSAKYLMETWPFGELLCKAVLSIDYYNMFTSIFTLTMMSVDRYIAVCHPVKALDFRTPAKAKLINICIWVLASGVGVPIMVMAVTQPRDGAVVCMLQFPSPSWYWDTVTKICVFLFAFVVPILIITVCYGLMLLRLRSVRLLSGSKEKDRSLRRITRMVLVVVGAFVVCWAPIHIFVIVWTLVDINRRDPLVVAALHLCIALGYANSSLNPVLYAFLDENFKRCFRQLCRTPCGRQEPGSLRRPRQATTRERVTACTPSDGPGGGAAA

**Q.** Which results are given for `C[C@@H]1C(=O)N[C@@H](Cc2ccccc2)C(=O)N[C@H](Cc2ccccc2)C(=O)N2CCC[C@H]2C(=O)N1C` [cyclo[D-Phe-Pro-D-NMe-Ala-Phe]] (cyclo(F[dF]P[dNMeA]))?
**A.** KOR antagonism (KOR): did not exhibit KOR antagonist activity; half-life [1, 4]: 12 min

**Q.** With `CN1CC(=O)N[C@@H](Cc2ccccc2)C(=O)N[C@H](Cc2ccccc2)C(=O)N2CCC[C@H]2C1=O` [cyclo[D-Phe-Pro-Sar-Phe]] (cyclo(F[dF]P[Sar])) as the compound, how does the “antinociception in opioid receptor KO mice” value (MOR KO mice; 1 nmol dose) read?
**A.** significantly impaired only in MOR KO mice

**Q.** What about the “antinociception ED50 (and 95% C.I.) in MOR KO mice” value (MOR KO mice; MOR KO mice) of the same compound?
**A.** 58.2 (17.4-558) nmol

**Q.** What about the “cocaine-induced reinstatement of cocaine CPP” value (C57Bl/6 mice; 0.01 nmol i.c.v., 5 min pretreatment) of the same compound?
**A.** prevented cocaine-induced reinstatement

**Q.** What about the “reinstatement of cocaine CPP by compound alone” value (C57Bl/6 mice; 0.01 nmol i.c.v., no stress or cocaine) of the same compound?
**A.** did not induce reinstatement

**Q.** What about the “stress-induced reinstatement of cocaine CPP” value (C57Bl/6 mice; 0.01 nmol i.c.v., −1.5 h) of the same compound?
**A.** prevented stress-induced reinstatement of cocaine CPP

**Q.** What about the “stress-induced reinstatement of cocaine CPP, oral” value (C57Bl/6 mice; 30 mg/kg and 60 mg/kg p.o., −2.5 h) of the same compound?
**A.** prevented stress-induced reinstatement of cocaine CPP

**Q.** What about the “stress- and cocaine-induced reinstatement of CPP after oral administration (FIG. 10B)” value (C57Bl/6 mice; p.o.) of the same compound?
**A.** prevented both stress- and cocaine-induced reinstatement of CPP after oral administration

**Q.** What about the “antagonism of U50,488-induced antinociception after i.p. administration” value (KOR; 2.5 h pretreatment, i.p.) of the same compound?
**A.** dose-dependent antagonism of U50,488-induced antinociception

**Q.** And the “KOR antagonism” value (KOR)?
**A.** significantly antagonized KOR in a dose-dependent manner; also recorded: significant antagonism of only the KOR-selective agonist U50,488

**Q.** And the “dose giving significant blockade of U50,488-induced antinociception (KOR antagonism)” value (KOR; i.c.v., 2.5 h pretreatment)?
**A.** 1 pmol

**Q.** What about the “KOR antagonism after oral administration” value (KOR; p.o., 2.5 h after administration) of the same compound?
**A.** demonstrated KOR antagonism

**Q.** And the “antagonism of centrally administered (i.c.v.) U50,488 after oral administration” value (KOR; p.o., U50,488 i.c.v.)?
**A.** dose-dependently antagonized i.c.v. U50,488

**Q.** And the “morphine-mediated antinociception after pretreatment” value (μ opioid receptor)?
**A.** 100±0%

**Q.** What about the half-life [1, 4] of the same compound?
**A.** 60 min

**Q.** And the “stress- and ethanol-induced reinstatement of ethanol CPP (FIG. 11)” value (mice [2])?
**A.** prevented both stress- and ethanol-induced reinstatement of ethanol CPP

**Q.** And the “stress-induced reinstatement of ethanol CPP” value (mice [2]; −2 h)?
**A.** prevented stress-induced reinstatement of ethanol CPP

**Q.** And the “morphine-induced reinstatement of morphine-CPP, lower dose” value (mice [3]; 0.01 nmol i.c.v.)?
**A.** did not have significant effects

**Q.** What about the “reinstatement of extinguished morphine CPP by compound alone” value (mice [3]; 0.01 nmol i.c.v.) of the same compound?
**A.** did not directly reinstate extinguished CPP

**Q.** What about the “stress-induced reinstatement of morphine CPP” value (mice [3]; 0.01 nmol i.c.v., −2.5 h) of the same compound?
**A.** prevented stress-induced reinstatement of morphine CPP

**Q.** And the “morphine-induced reinstatement of morphine-CPP” value (mice [3]; 0.03 nmol i.c.v., 5 min pretreatment)?
**A.** prevented morphine-induced reinstatement of morphine-CPP

**Q.** What about the “stress-induced reinstatement of morphine CPP, peripheral pretreatment” value (mice [3]) of the same compound?
**A.** prevented stress-induced reinstatement

**Q.** And the “SNC80-mediated antinociception after pretreatment” value (δ opioid receptor)?
**A.** 87.1±7.7%

**Q.** And the “antinociception in KOR KO mice pretreated with MOR-selective antagonist β-FNA” value (KOR KO mice)?
**A.** completely inhibited

**Q.** For `O=C1N[C@H](Cc2c[nH]c3ccccc23)C(=O)N[C@@H](Cc2ccccc2)C(=O)N2CCC[C@@H]2C(=O)N[C@H]1Cc1ccccc1` [[D-Trp]CJ-15,208, reference compound] (cyclo(F[dP]F[dW])), which half-life ([1]; microsomes) is on record?
**A.** 11 min

**Q.** With `Oc1ccc2c3c1O[C@H]1c4[nH]c5c(c4C[C@@]4(O)[C@@H](C2)N(CC2CC2)CC[C@]314)C[C@@]1(O)[C@H]2Cc3ccc(O)c4c3[C@@]1(CCN2CC1CC1)[C@H]5O4` [nor-BNI, nor-binaltorphimine, reference compound] as the compound, how does the “stress-induced reinstatement of morphine CPP, peripheral pretreatment” value (mice [3]) read?
**A.** prevented stress-induced reinstatement
